Laboratory results as given in article PMC7297445, “Pharmacokinetic/Pharmacodynamic Determination and Preclinical Pharmacokinetics of the β-Lactamase Inhibitor ETX1317 and Its Orally Available Prodrug ETX0282” (ACS Infectious Diseases, 2020).

Key:
E. coli ARC2687 [1] = assay: MIC, broth microdilution (CLSI); assay type: cell-based; details: ESBL producer
Method: (§1) MICs were determined utilizing a 1:2 ratio of cefpodoxime:ETX1317. […] The isolates utilized in the present study (Table 1) were broadly insensitive to CPD, presumably due to the presence of ESBLs and carbapenemases expressed in these strains. The addition of ETX1317 restored CPD activity to ≤1 μg/mL across all the tested isolates.
(§2) The MIC of each isolate was determined using the broth microdilution method following CLSI guidelines of document M07-A7 (CLSI M07-A7).

K. pneumoniae ARC4488 = assay: MIC, broth microdilution (CLSI); assay type: cell-based; details: ESBL producer
Method: as §1, §2

K. pneumoniae ARC5118 [2] = assay: MIC, broth microdilution (CLSI); assay type: cell-based; details: KPC-producing isolate
Method: as §1, §2

E. coli NMC101 = assay: Murine neutropenic thigh infection model; assay type: in vivo, mouse; details: 600 mg/kg s.c./q6h
Method: (§3) To further understand whether this in vitro activity translated to in vivo efficacy, an additional neutropenic thigh study was conducted in mice with increasing doses of ETX0282 alone vs E. coli NMC101 (ETX1317 MICBLI = 1 μg/mL) and ARC4419 (ETX1317 MICBLI = 0.25 μg/mL). […] Despite the significant exposure of ETX1317, a 200 mg/kg q6h dose of ETX0282 alone was ineffective for both strains (Table 6).
(§4) In vivo neutropenic infection models in the mouse were conducted as previously described.[48],[49] All procedures were performed to Entasis approved IACUC policies and guidelines as well as OLAW standards. Briefly, Female CD-1 mice (20–22 g, Charles River Laboratories) were acclimated for 5 days prior to start of study. Animals were housed 3 per cage with free access to food and water. Mice were rendered neutropenic via two doses of cyclophosphamide on days −4 and −1 with 150 mg/kg and 100 mg/kg delivered intraperitoneally in a dose volume of 10 mL/kg, respectively.[48]
(§5) Enterobacteriaceae isolates ARC2687, ARC4488, ARC5118, NMC101, and ARC4419 were prepared for infection from an overnight plate culture. A portion of the plate was resuspended in sterile saline and adjusted to an OD of 0.1 at 625 nm. The adjusted bacterial suspension was further diluted to target an infecting inoculum of approximately 5.0 × 10^6–1.0 × 10^7 CFU/mouse. The actual inoculum size varied between 5.5 × 10^6–1.6 × 10^6 CFU/thigh and administered via intramuscular injection of (100 μL). Plate counts of the inoculum were performed to confirm inoculum concentration and treatment was initiated 2 h after bacterial challenge.
(§6) ETX0282 and CPDP were formulated in 0.5% HPMC/0.1% Tween 80 suspension. meropenem (utilized as a positive control) was solubilized in water for injection. All studies utilized a meropenem dosed at 600 mg/kg q6h subcutaneously as positive control against meropenem sensitive isolates (MIC ≤ 2 μg/mL) and as a negative control against meropenem resistant isolates. For dose arms utilizing a combination of ETX0282 and CPDP, both agents were reconstituted in the same vehicle. All dose concentrations were adjusted to deliver targeted mg/kg doses within a dose volume of 10 mL/kg. Formulation potency was verified by LC/MS/MS.
(§7) ETX0282 and CPDP were administered via q6h dose intervals in order to achieve targeted unbound exposures. At 24 h post initiation of therapy, animals were euthanized, tissue samples aseptically collected and homogenized. Bacterial colony enumeration of tissue homogenate was performed by serial dilution on TSA plates which were incubated overnight at 35 °C prior to colony (CFU) counting.

E. coli ARC4419 = assay: Murine neutropenic thigh infection model; assay type: in vivo, mouse; details: 600 mg/kg s.c./q6h
Method: as §3, §4, §5, §6, §7

E. coli ARC2687 [3] = assay: Murine neutropenic thigh infection model; assay type: in vivo, mouse
Method: as §4, §5, §6, §7

K. pneumoniae ARC5118 [4] = assay: Murine neutropenic thigh infection model; assay type: in vivo, mouse
Method: as §4, §5, §6, §7

[5] = q6h, 24 h, cidal = ≥1 log10 CFU/g reduction

SMILES: C[C@@H](O)[C@H]1C(=O)N2C(C(=O)O)=C(S[C@@H]3CN[C@H](C(=O)N(C)C)C3)[C@H](C)[C@H]12 [meropenem]
- susceptibility to meropenem (E. coli ARC2687 [1]): maintain susceptibility to meropenem
- susceptibility to meropenem (K. pneumoniae ARC4488): maintain susceptibility to meropenem
- susceptibility to meropenem (K. pneumoniae ARC5118 [2]): resistant to meropenem
- log10 CFU/g thigh change 24 h post therapy initiation (E. coli NMC101): –1.36 log10 CFU/g
- log10 CFU/g thigh change 24 h post therapy initiation (E. coli ARC4419): –2.19 log10 CFU/g
- log10 CFU/g thigh change 24 h post therapy initiation (E. coli ARC2687 [3]; 600 mg/kg s.c./q6h): –1.46 log10 CFU/g
- in vivo efficacy in words (E. coli ARC2687 [3]; [5]): cidal activity
- log10 CFU/g thigh change 24 h post therapy initiation (K. pneumoniae ARC5118 [4]; 600 mg/kg s.c./q6h): +2.04 log10 CFU/g
- in vivo efficacy in words (K. pneumoniae ARC5118 [4]; [5]): not against K. pneumoniae ARC5118
